Results: patent US5972598A, “Methods for preventing multidrug resistance in cancer cells” (priority 1995, dated 1999)
“Also recorded” adds a separate entry of the source. Where two headings read alike, the source gives them in different places.

Columns and labels:
MDR1 [1] = type: cell-based, human
Description: The times of drug exposure are indicated.
(§1) (Commercially-available kits (for example, from GIBCO/BRL, Gaithersburg, Md.) can be advantageously modified for making cDNA using random hexamers.) PCR is then performed using the following primers: […]
Next, it was tested whether drug-induced MDR1 expression was maintained after the cytotoxic treatment. […] At different time points, MDR1 expression in the surviving cells was analyzed by dye efflux and immunofluorescence labeling with UIC2 (FIG. 3c) or by cDNA-PCR (FIG. 4e).

MDR1 [2] = experiment: Inhibition of cytotoxic drug (Ara-C) induced MDR1 expression by protein kinase inhibitors; type: cell-based, human
Description: FIG. 5. Effect of protein kinase inhibitors on MDR1 mRNA induction by cytotoxic drugs in H9 cells. […]
as §1
(§2) (where β2 M represents β2 microglobulin). PCR was performed for β2 M experiments under a regime consisting of 1 cycle comprising denaturation at 94° C. for 3 minutes, primer annealing at 60° C. for 30 seconds, and primer extension at 72° C. for 1 minute, followed by 19 cycles comprising denaturation at 94° C. for 30 seconds, primer annealing at 60° C. for 30 seconds, and primer extension at 72° C. for 1 minute, followed by a final cycle comprising denaturation at 94° C. for 30 seconds, primer annealing at 60° C. for 30 seconds, and primer extension at 72° C. for 5 minutes. MDR1 cDNA sequences were amplified using the identical protocol as for β2 M, but extending the amplification from 19 cycles to 25 cycles. In addition, the cDNA-PCR amplification protocol contained the following modifications: (i) Taq DNA polymerase was added to the PCR mixtures after initial heating of the samples to 94° C. (ii) The yield of the β2 -microglobulin-specific band, obtained after 22-28 cycles of PCR, was used as the primary criterion for equalizing the starting amounts of the cDNA templates in different preparations, in order to account for differential RNA degradation in cells subjected to different types of treatment. […] PCR products were detected by autoradiography.
Cells were plated in 6-well Falcon tissue culture plates at 3,300 cells per well, and incubated in the appropriate concentrations of drugs. Each of the protein kinase inhibitors to be tested were added at their appropriate final concentrations 45 minutes prior to MDR1 induction by the addition of Ara-C or TPA, with the exception of herbimycin A, which was added 12 hours prior to Ara-C or TPA, and tyrphostins A25 and B46, which were each added 16 hours prior to MDR1 induction by the addition of Ara-C or TPA. Cells were incubated overnight (TPA) or for 10 hours (Ara-C) at 37° C. under an atmosphere of 5% CO2 after the addition of the MDR1 inducing agents before harvesting for cDNA-PCR analysis.
In addition to these conditions, the analysis of certain drugs imposed added requirements. For experiments using calphostin C, cells were incubated under direct white light illumination. For experiments using D,L-threo-sphingosine, the cell culture medium was pre-treated with the appropriate concentration of the drug for one hour at 37° C. with continuous gentle mixing. After this pre-treatment, cells were resuspended in media supplemented with drug and incubated for 45 minutes as described above.
cDNA-PCR analyses on each culture treated with drugs, or in control cultures incubated in the absence or presence of Ara-C or TPA alone, were performed as described in Section 6.1.3 above.
To further evaluate the capacity of protein kinase inhibitors to suppress MDR1 induction by cytotoxic drugs and PKC agonists, H-9 human T cell leukemia cells were used in cDNA-PCR assays to examine induced MDR1 mRNA expression levels in the presence of such protein kinase inhibitors.

MRP = experiment: Inhibition of MRP expression in H-9 cells; type: cell-based, human; set-up: Inhibition of MRP Expression: key to the marks not given beside the values
Description: PCR was performed using the following primers: […]
(where β2 M represents β2 microglobulin). PCR was performed for β2 M experiments under a regime consisting of 1 cycle comprising denaturation at 94° C. for 3 minutes, primer annealing at 60° C. for 30 seconds, and primer extension at 72° C. for 1 minute, followed by 19 cycles comprising denaturation at 94° C. for 30 seconds, primer annealing at 60° C. for 30 seconds, and primer extension at 72° C. for 1 minute, followed by a final cycle comprising denaturation at 94° C. for 30 seconds, primer annealing at 60° C. for 30 seconds, and primer extension at 72° C. for 5 minutes.

PKC = details: literature; cited from earlier work
tumor [3] = details: cited from earlier work; for antitumor activity in vivo: literature
P-glycoprotein = P-glycoprotein (Homo sapiens, UniProt P08183); experiment: Rh123 accumulation assay of P-glycoprotein activity in human PBL
Description: KG1 cell line was maintained in Iscove's modified Dulbecco medium with 20% fetal calf serum (FCS) and 2 mM L-glutamine, 100 units/ml penicillin and 100 μg/ml streptomycin (GIBCO Laboratories, Grand Island, N.Y.).
A functional assay was used to detect changes in P-glycoprotein activity in human PBL treated with different agents that induce lymphoid differentiation or activation, based on flow cytometric analysis of cellular accumulation of Rh123, which is a P-glycoprotein-transported fluorescent mitochondrial dye. In this assay, cells expressing little or no P-glycoprotein stain brightly with Rh123, whereas cells with higher levels of P-glycoprotein activity appear Rh123-dull. […] Since the best-known cellular effect of TPA is the stimulation of PKC, it was also tested whether DOG, a cell-permeable diacylglycerol and a physiological stimulant of PKC, would have an effect on Rh123 accumulation in PBL.

MDR1 [4] = experiment: cDNA-PCR / flow cytometric analysis of MDR1 induction by PKC agonists; type: cell-based, human
Description: Neomycin sulfate (Calbiochem) was dissolved in sterile, deionized water.
P-glycoprotein expression on the cell surface was analyzed using a P-glycoprotein-specific mouse IgG2a monoclonal antibody (mAB) UIC2 (Mechetner and Roninson, 1992, Proc. Natl. Acad. Sci. USA 89:5824-5828). Mouse IgG2a isotype control antibody was obtained from Sigma. For staining of PBL with UIC2 mAB or isotype control, 10^6 cells were stained at 4° C. with 10 μg of the antibody for 30 minutes and, after two washes, stained for 30 minutes with 10 μg of FITC-conjugated goat anti-mouse IgG2a antibody (Fisher Scientific, Fairlawn, N.J.), diluted 1:2 with PBS plus 2% FCS. Cells were then washed twice with ice-cold PBS plus 2% FCS, stained with PI and kept on ice until analysis. Essentially the same protocol was used for staining of other cell types except that 2 μg of the secondary antibody were used per 10^6 cells. In some experiments, phycoerythrine (PE)-conjugated goat anti-mouse IgG2a was used as the secondary antibody; no PI was added in such cases. Flow cytometric analysis was conducted on a Coulter Epics 753 Flow Cytometer.
RNA was extracted from approximately 10^6 cells by a small-scale sodium dodecyl sulfate extraction procedure (Peppel and Baglioni, 1990, BioTechniques 9:711-713). In the alternative, RNA was isolated from cells using the TRIzol method (commercially available from GIBCO/BRL). cDNA synthesis and polymerase chain reaction (PCR) amplification of MDR1 and β2 -microglobulin cDNA sequences were carried out essentially as described (Noonan et al., 1990, Proc. Natl. Acad. Sci. USA 87:7160-7164; Noonan and Roninson, 1991, pp. 319-333 In Roninson (Ed.), Molecular and Cellular Biology of Multidrug Resistance in Tumor Cells, Plenum Press, New York). Briefly, cDNA was prepared using the method of Krug and Berger (1987, Meth. Enzymol. 152: 316-324), with the modification that random hexamers were substituted for oligo(dT) as primers for cDNA synthesis. (Commercially-available kits (for example, from GIBCO/BRL, Gaithersburg, Md.) can be advantageously modified for making cDNA using random hexamers.) PCR is then performed using the following primers: […]
as §2

tumor [5] = details: nude mice; Meyer et al., 1989; cited from earlier work

P-glycoprotein, sequence (P08183 whole entry): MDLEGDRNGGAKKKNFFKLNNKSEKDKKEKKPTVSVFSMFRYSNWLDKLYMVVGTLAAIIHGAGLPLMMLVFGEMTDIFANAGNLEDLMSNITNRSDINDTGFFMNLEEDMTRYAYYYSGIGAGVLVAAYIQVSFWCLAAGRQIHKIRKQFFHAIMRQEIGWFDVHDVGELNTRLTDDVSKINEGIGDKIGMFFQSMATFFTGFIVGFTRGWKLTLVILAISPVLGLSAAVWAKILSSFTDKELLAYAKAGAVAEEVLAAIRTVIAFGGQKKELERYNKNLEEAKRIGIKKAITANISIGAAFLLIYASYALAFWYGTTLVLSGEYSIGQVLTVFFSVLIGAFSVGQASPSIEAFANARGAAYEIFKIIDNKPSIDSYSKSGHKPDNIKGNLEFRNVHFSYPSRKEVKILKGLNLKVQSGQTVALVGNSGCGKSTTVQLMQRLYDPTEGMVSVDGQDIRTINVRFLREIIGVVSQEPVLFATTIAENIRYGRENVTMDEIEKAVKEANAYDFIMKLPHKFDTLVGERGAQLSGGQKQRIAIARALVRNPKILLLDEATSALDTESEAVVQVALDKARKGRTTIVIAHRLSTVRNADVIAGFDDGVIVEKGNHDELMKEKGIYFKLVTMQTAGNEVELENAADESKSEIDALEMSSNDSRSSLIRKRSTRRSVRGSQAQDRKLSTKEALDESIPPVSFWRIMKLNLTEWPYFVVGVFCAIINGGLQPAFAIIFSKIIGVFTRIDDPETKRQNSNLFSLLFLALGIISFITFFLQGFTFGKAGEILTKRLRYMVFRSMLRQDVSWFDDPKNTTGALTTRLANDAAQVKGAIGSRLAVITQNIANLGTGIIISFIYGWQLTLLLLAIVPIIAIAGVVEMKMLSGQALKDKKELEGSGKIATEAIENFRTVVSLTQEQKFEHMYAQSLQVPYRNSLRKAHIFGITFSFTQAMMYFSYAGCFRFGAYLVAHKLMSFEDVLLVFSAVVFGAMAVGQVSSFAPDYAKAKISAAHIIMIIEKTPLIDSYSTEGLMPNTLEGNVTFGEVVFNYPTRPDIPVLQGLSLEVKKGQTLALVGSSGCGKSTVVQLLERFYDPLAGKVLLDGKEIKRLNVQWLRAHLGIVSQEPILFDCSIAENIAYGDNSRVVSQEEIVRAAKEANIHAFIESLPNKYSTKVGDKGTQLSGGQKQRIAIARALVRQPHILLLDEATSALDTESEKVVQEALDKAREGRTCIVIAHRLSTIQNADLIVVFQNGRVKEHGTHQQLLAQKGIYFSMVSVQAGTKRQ

With CN(Cc1cnc2nc(N)nc(N)c2n1)c1ccc(C(=O)N[C@@H](CCC(=O)O)C(=O)O)cc1 [methotrexate] the “MDR1 induction, mRNA and protein levels” value (MDR1 [1]) was “MDR1 induction, both at the mRNA and at the protein levels, was observed”, the “MDR1 mRNA expression” value (MDR1 [1]) was “MDR1 mRNA expression was induced” and the “maintenance of MDR1 expression after removal of the drug” value (MDR1 [1]) was “least several weeks”.

For COc1ccc2c(c[n+](C)c3c4cc5c(cc4ccc23)OCO5)c1OC [chelerythrine], the “prevention of MDR1 induction by chemotherapeutic drugs” value (MDR1 [2]; 5 μM) was “prevent MDR1 induction”, the “inhibition of Ara-C induced MDR1 expression” value (MDR1 [2]; H-9 cells, 1 μM and 5 μM) was “Progressive dose-dependent inhibition” and the “Inhibition of MRP Expression” value (MRP; 1-5 μM) was “++++”. For the same compound, the “inhibition of MRP expression” value (MRP; 1-5 μM) was “strongly inhibited; also recorded: capable of inhibiting MRP expression”.

With neomycin sulfate the “inhibition of Ara-C induced MDR1 expression” value (MDR1 [2]; H-9 cells, 10 mM) was “inhibit Ara-C induced MDR1 expression”, the “Inhibition of MRP Expression” value (MRP; 10 mM) was “++++” and the “inhibition of MRP expression” value (MRP; 10 mM) was “strongly inhibited; also recorded: capable of inhibiting MRP expression”. For the same compound, the “inhibition of protein kinase C” value (PKC) was “protein kinase C inhibitors”.

In the case of N.N.[Cl][Pt][Cl] [cisplatin], the “MDR1 mRNA induction” value (MDR1 [1]; K562 cells) is reported as “induce MDR1 mRNA expression” and the “MDR1 induction, mRNA and protein levels” value (MDR1 [1]; human leukemia and solid-tumor derived cell lines, subpopulation of treated cells) is reported as “MDR1 induction, both at the mRNA and at the protein levels, was observed”.

For N#CC(C#N)=Cc1cc(O)c(O)c(O)c1 [tyrphostin A25], the “inhibition of Ara-C induced MDR1 expression” value (MDR1 [2]; H-9 cells, 50-100 μM) was “strongly inhibit Ara-C induced MDR1 expression; also recorded: inhibit Ara-C induced MDR1 expression”.

For CCN(CC)CCN1C(=O)c2c(c3c4cccc(Cl)c4n([C@@H]4O[C@H](CO)[C@@H](OC)[C@H](O)[C@H]4O)c3c3[nH]c4c(Cl)cccc4c23)C1=O [BMY 27557, 8-N-(diethylaminoethyl) rebeccamycin], the “optimal total dose, i.p., nine equal injections per day at 12 mg/kg/injection” value (tumor [3]; i.p., Schurig et al., 1990) is given as 108 mg/kg, the “optimal total dose, i.p., single dose” value (tumor [3]; i.p., Schurig et al., 1990) is given as 64 mg/kg and the “antitumor activity in vivo” value (tumor [3]) is given as “antitumor activity in vivo”.

In the case of CNc1ccc2oc(C[C@H]3O[C@@]4(CC[C@H]3C)O[C@H]([C@H](C)C(=O)c3ccc[nH]3)[C@H](C)C[C@H]4C)nc2c1C(=O)O [A23187], the “effect on P-glycoprotein activity (Rh123 accumulation)” value (shortened to “effect on P-glycoprotein activity”) (P-glycoprotein; human PBL) is reported as “No apparent effects on P-glycoprotein”.

With IL-1α the “effect on P-glycoprotein activity” value (P-glycoprotein) was “No apparent effects on P-glycoprotein”.

In the case of CCCCCCCC(=O)OCC(CO)OC(=O)CCCCCCC (stereo not shown) [DOG, 1,2-dioctanoylglycerol], the “effect on P-glycoprotein activity” value (P-glycoprotein; human PBL) is reported as “decreased Rh123 accumulation”, the “induction of MDR1 mRNA and P-glycoprotein” value (MDR1 [4]; H9 cells) is reported as “clear-cut induction of MDR1 mRNA and P-glycoprotein” and the “induction of MDR1 mRNA and P-glycoprotein” value (MDR1 [4]; K562 cells) is reported as “clear-cut induction of MDR1 mRNA and P-glycoprotein”.

With COc1c(CC(C)OC(=O)Oc2ccc(O)cc2)c2c3c(CC(C)OC(=O)c4ccccc4)c(OC)c(=O)c4c(O)cc(OC)c(c5c(OC)cc(O)c(c1=O)c52)c43 (stereo not shown) [calphostin C] the “prevention of MDR1 induction by chemotherapeutic drugs” value (MDR1 [2]; 1 μM with white light illumination) was “prevent MDR1 induction”, the “inhibition of Ara-C induced MDR1 expression” value (MDR1 [2]; H-9 cells, 0.1 μM with white light illumination) was “greatly reduced” and the “inhibition of Ara-C induced MDR1 expression” value (MDR1 [2]; H-9 cells, 1 μM with white light illumination) was “capable of inhibiting MDR1 expression”.

For O=CN/C=C/c1cc(O)ccc1O [erbstatin], the “inhibition of protein kinase C” value (PKC) is given as “protein kinase C inhibitors” and the “antitumor activity in vivo” value (tumor [3]) is given as “antitumor activity in vivo”.

For O=c1c(-c2ccc(O)cc2)coc2cc(O)cc(O)c12 [genistein], the “inhibition of Ara-C induced MDR1 expression” value (MDR1 [2]; 150 μM) was “only weakly inhibited Ara-C induced MDR1 expression” and the “inhibition of Ara-C induced MDR1 expression” value (MDR1 [2]; H9 cells, 25 μM Ara-C 10 h, 150 μM) was “+”.

With N#CC(=Cc1ccc(O)c(O)c1)C(=O)NCCCc1ccccc1 [tyrphostin B46] the “inhibition of Ara-C induced MDR1 expression” value (MDR1 [2]; H-9 cells, 50-100 μM) was “strongly inhibit Ara-C induced MDR1 expression; also recorded: inhibit Ara-C induced MDR1 expression”.

For CN[C@@H]1C[C@H]2O[C@@](C)([C@@H]1OC)n1c3ccccc3c3c4c(c5c6ccccc6n2c5c31)C(=O)N[C@H]4O [UCN-01], the “antitumor activity in vivo” value (tumor [3]) is listed as “antitumor activity in vivo”.

In the case of COc1cc([C@@H]2c3cc4c(cc3[C@@H](O[C@@H]3O[C@@H]5CO[C@@H](C)O[C@H]5[C@H](O)[C@H]3O)[C@H]3COC(=O)[C@H]23)OCO4)cc(OC)c1O [etoposide], the “MDR1 induction, mRNA and protein levels” value (MDR1 [1]) is reported as “MDR1 induction, both at the mRNA and at the protein levels, was observed”.

In the case of O=c1[nH]cc(F)c(=O)[nH]1 [5-fluorouracil], the “MDR1 induction, mRNA and protein levels” value (MDR1 [1]) is reported as “MDR1 induction, both at the mRNA and at the protein levels, was observed”.

With COC1C=CC=C(C)C(=O)NC2=CC(=O)C=C(C2=O)C(OC)C(C)CC(OC)C(OC)C(C)C=C(C)C1OC(N)=O (stereo not shown) [herbimycin A] the “inhibition of Ara-C induced MDR1 expression” value (MDR1 [2]; 0.35-3 μM) was “little or no capacity to inhibit Ara-C induced MDR1 expression; also recorded: ineffective at inhibiting MDR1 induction by Ara-C” and the “inhibition of Ara-C induced MDR1 expression” value (MDR1 [2]; H9 cells, 25 μM Ara-C 10 h, 0.3-3 μM (12 h)) was “-”.

For CO[C@@H]1[C@H](N(C)C(=O)c2ccccc2)C[C@H]2O[C@]1(C)n1c3ccccc3c3c4c(c5c6ccccc6n2c5c31)C(=O)NC4 [CGP 41 251], the “anti-tumor effect at fraction of MTD” value (tumor [5]) is given as 1/10 and the “maximum tolerated dose (MTD)” value (tumor [5]) is given as 250 mg/kg.
